In the SangsterLogP compilation one finds logP data, which are given here for 40 compounds.

One may read the logP as the decadic logarithm of the partition coefficient of the neutral form, usually between octanol and water. A lower logP goes with lower lipophilicity.

Molecules are shown by their SMILES.

Consider `CCN(C)N=Nc1ccccc1C(=O)O`, for which the logP stood at 0.11.

The compound `C=CCN(CC=C)N=Nc1ccccc1C(=O)O` returned a lipophilicity (logP) of 0.62. The value for `CC(=O)N(C)N=Nc1ccc(C(N)=O)cc1` was 1.37.

As for `CCN(C)/N=N/c1ccccc1C(N)=O`, the logP was 2.59. With `CN(C)/N=N/c1ccc(C(F)(F)F)cc1` the figure was 4; with `CCCCCN(C)N=Nc1ccc(C(=O)O)cc1`, 1.46; with `CCN(CC)N=Nc1ccc(S(C)(=O)=O)cc1`, 2.6. As to `CN(C)/N=N/c1ccc([N+](=O)[O-])cc1`, the logP was 3.25. In turn, `CNN=Nc1ccc(C(N)=O)cc1` yielded a logP of 0.48.

Turning to `CCOC(=O)c1ccc(/N=N/N(C)C)cc1`, the logP turned out to be 3.66. `CCCCN(C)N=Nc1ccc(C(=O)O)cc1` gave a logP of 0.96. With `CCN(CC)N=Nc1ccccc1C(=O)O` the figure was 1.49; with `CCN(CC)N=Nc1ccccc1C(N)=O`, 2.96. The compound `CN(CC(F)(F)F)N=Nc1ccc(C(N)=O)cc1` registered a log partition coefficient (logP) of 1.86. For `CCNN=Nc1ccc(C(N)=O)cc1`, the logP was found to be 1.19. Take `CC(C)N(N=Nc1ccc(C(N)=O)cc1)C(C)C`: the logP is 3.

`COC(=O)c1cccc(/N=N/N(C)C)c1` registered a logP of 3.12. The compound `CCN(CC)/N=N/c1ccc(C(N)=O)cc1` returned a log partition coefficient (logP) of 2.26. With `CCCCCN(C)N=Nc1ccc(C(N)=O)cc1`, the logP was 3.18. The compound `CCOC(=O)c1ccc(N=NN(C)CCO)cc1` returned a logP of 2.66.

As for `CN(C)/N=N/c1cccc(C(N)=O)c1`, the logP is 1.3. In turn, `COC(=O)c1ccc(/N=N/N(C)C)cc1` showed a lipophilicity (logP) of 3.22.

In the case of `CCCCN(C)/N=N/c1ccccc1C(N)=O`, the logP amounted to 3.52. The value for `CN(C)/N=N/c1ccccc1C(=O)O` was -0.28; that for `CCCN(C)N=Nc1ccc(C(N)=O)cc1` was 2.17. With `CN(C)/N=N/c1ccc(S(C)(=O)=O)cc1` the figure was 1.59.

As to `CN(Cc1ccccc1)N=Nc1ccc(C(N)=O)cc1`, the logP came out at 2.77.

Compound `CCCCCN(C)N=Nc1ccc(S(=O)(=O)Nc2nccc(C)n2)cc1` returned a log partition coefficient (logP) of 2.34. The compound `CCCC(C)N(C)N=Nc1ccc(C(=O)O)cc1` (stereo not given) had a logP of 1.35. Compound `COc1ccc(/N=N/N(C)C)cc1` showed a logP of 2.99.

`CN(C)N=Nc1ccc(S(=O)(=O)Nc2ccno2)cc1` displayed a logP of 0.42. `CN(C)/N=N/c1cccc(C(=O)O)c1` yielded a log partition coefficient (logP) of -0.38. In turn, `CCCCN(C)/N=N/c1ccc(C(N)=O)cc1` showed a logP of 2.68.

In turn, `CCCCCN(C)N=Nc1ccc(S(=O)(=O)Nc2ccccn2)cc1` had a logP of 2.16.

The compound `CCN(C)/N=N/c1ccc(C(N)=O)cc1` gave a logP of 1.69. Compound `CCCN(C)N=Nc1ccc(C(=O)O)cc1` showed a logP of 0.46.

Compound `CN(C)N=Nc1ccc(S(=O)(=O)CCO)cc1` gave a log partition coefficient (logP) of 1.15. `COC(=O)c1ccccc1/N=N/N(C)C` had a logP of 2.51. In the case of `CCN(CC)N=Nc1cc([N+](=O)[O-])cc([N+](=O)[O-])c1`, the logP stood at 4.69. With `CN(C)/N=N/c1ccc(S(N)(=O)=O)cc1` the figure was 0.85.
